Experimental data as given in patent US7598377B2, “Inhibition of phosphoinositide 3-kinase β” (AstraZeneca AB, priority 2002, dated 2009).
pIC50: −log10 of the molar value. “Also recorded” adds a separate entry of the source. Where two headings read alike, the source gives them in different places.

Experiments:
[1] = system: carotid artery occlusive thrombus formation in rats; assay: Electrolytic injury carotid model in rats; type: in vivo
Description: Treatments were given as an i.v. bolus at time−9 min (i.e. 5 min before applying the current). Error bars are average SEM from repeated-measures ANOVA. […] Error bars are ±1 SEM. Distal to the left carotid artery flow probe, a piece of Parafilm was inserted under the vessel for electrical isolation. The artery was placed onto a hook-shaped platinum electrode, after which, it was clamped distally to the electrode to occlude blood flow and a current of 7 mA was delivered for 4 min using a constant current unit (Model CCU1, Grass Instruments, Quincy, Mass., USA) connected to a Grass SD9 stimulator. The artery clamp was released immediately after this 4 min period. Blood flow was monitored for 60 min after the end of the stimulation. Thrombosis formation was defined by blood flow falling to zero.

[2] = system: carotid artery occlusive thrombus formation in rats; assay: Modified Folts model in rats; type: in vivo, Sprague-Dawley rats
Description: Studies were approved by the University of Melbourne Animal Ethics Committee in accordance with the guidelines of the National Health & Medical Research Council of Australia. Anaesthesia was induced in Sprague-Dawley rats (260-400 g) with sodium pentobarbitone (Nembutal; 60 mg/kg i.p.; Merial Australia Pty. Ltd., Sydney, NSW, Australia), and in New Zealand White rabbits (2-3 kg) with pentobarbitone (15 mg/kg i.v.) and fentanyl (6 μg/kg i.v.; David Bull Laboratories, Mulgrave, VIC, Australia). Animals were mechanically ventilated (Ugo Basile ventilator, Comerio, VA, Italy) with room air supplemented with O2. Body temperature was maintained throughout the experiment. Arterial blood pressure was measured via a femoral artery catheter connected to a pressure transducer (Model 1050.1, AD Instruments, Sydney, NSW) and a blood flow probe (1 mm i.d. for rats & 2.5 mm i.d. for rabbits; flowmeter […], Transonic Systems Inc., Ithaca, N.Y., USA) was placed around each (control and test) carotid artery; all parameters were recorded on a PowerLab data acquisition system (8SP; AD Instruments). A silk suture was tied loosely around 1 artery, distal to the flow probe, for subsequent stenosis. […] Carotid blood flow was monitored until it reached 0 ml/min, indicating a clot had formed at the site of stenosis. […] Again, carotid blood flow was monitored until it reached 0 ml/min, and the time recorded. […]

[3] = system: platelets on immobilized vWf; assay: In vitro flow studies: platelet calcium flux and adhesion on immobilized vWf; type: cell-based
Description: The use of an in vitro-flow based adhesion assay enables us to simultaneously analyze platelet adhesion dynamics and activation (by monitoring cytosolic calcium flux) on immobilized von Willebrand factor (vWf). Briefly, isolated platelets are perfused through vWf (100 μg/ml) coated microcapillary tubes and analysis of cytosolic calcium flux conducted in real-time by confocal microscopy.
Washed platelets (1.5×10^9) suspended in PWB were incubated with the calcium indicator dyes, Oregon Green 488 BAPTA-1, AM (1 μM) and Fura Red, AM (1.25 μM), for 30 min at 37° C. Platelets were washed twice with PWB prior to being resuspended in Tyrode's buffer containing 1 mM calcium.
For static adhesion assays, platelets were allowed to settle on the surface of vWf-coated coverslips for 30 min at 37° C. For flow assays, platelets were either perfused over a vWf-coated microcapillary tube at a constant shear rate of 600, 1800 or 10,000 s^−1 or allowed to settle on the surface of a vWf-coated microcapillary tube prior to being accelerated through a shear gradient of 10,000 s^−1 over a 1 s interval. Real time platelet calcium flux in individual platelets was monitored at 1 s intervals over the 30 min incubation period or at 0.586 s intervals for up to 175 s for static and flow-based assays, respectively.

p110δ-PI3K = target: T1, p110δ-PI3K (Homo sapiens, UniProt O00329); assay: In vitro enzyme assay, p110δ immunoprecipitated from platelet lysate (Biological Example 1); type: biochemical; conditions: read-out: IC50 (μM), p110δ-PI3K
T1 construct: from tissue; host or cells: washed platelets (lysate, immunoprecipitated with anti-p110δ antibody)
Description: (§1) For each immunoprecipitation, 1 mg of lysate was incubated with an anti-p110α (1 μg), anti-p110β (1 μg), anti-p110δ (1 μg) or anti-PI4 kinase antibody (2-5 μg) and 50 μl of a 50% slurry of protein A beads overnight at 4° C. […] For PI4 kinase assays, protein A beads-immune complexes were also washed twice with lysis buffer, prior to two washes with 1× PI4 kinase assay buffer (20 mM Hepes, pH 7.5, 10 mM MgCl2, 0.3% Triton X-100) and the addition of other assay constituents, as described above. All reactions were terminated by the addition of 100 μl 1 M HCl, 200 μl choloroform/methanol (1:1) and 500 μl 2 M KCl and lipids extracted by centrifugation at 15,000×g for 2 minutes. The production of PI3 or PI4 kinase lipid products, PtdIns(3)P and PtdIns(4)P, were confirmed through TLC analysis. The lipid spots were then removed from the TLC plate and the level of radioactivity quantified to accurately determine the level of PtdIns(3)P/PtdIns(4)P production.

p110α-PI3K = target: T2, p110α-PI3K (Homo sapiens, UniProt P42336); assay: In vitro enzyme assay, p110α immunoprecipitated from platelet lysate (Biological Example 1); type: biochemical
T2 construct: The α and β isoforms of the PI3K were immunoprecipitated from a platelet lysate; from tissue; host or cells: washed platelets (lysate, immunoprecipitated with anti-p110α antibody)
Description: as §1

EGF Receptor = EGF Receptor (Homo sapiens, UniProt P00533); assay: Tyrosine kinase assay by MDS Pharma Services (Panlabs); type: biochemical
Fyn = Fyn (Homo sapiens, UniProt P06241); assay: as above; type: biochemical
p70^S6 = p70^S6 (Homo sapiens, UniProt P23443); assay: Ser/Thr kinase assay by MDS Pharma Services (Panlabs); type: biochemical
[4] = system: PI 3-kinase lipid products in platelets; assay: Shear-induced PI 3-kinase lipid products in platelets (cone & plate device, HPLC); type: cell-based
Description: Measurements of the lipid products PtdIns(4,5)P2 and PtdIns(3,4)P2 in intact platelets were performed by initially isolating lipids by HPLC and identifying lipid peaks using defined PtdIns(4,5)P2 and PtdIns(3,4)P2 standards. Lipids were integrated and normalized to total lipid applied and expressed as a fraction of untreated (control) samples.
For this assay, whole blood was collected in the presence of anti-coagulant [6 volumes blood to 1 volume anticoagulant (90 mM sodium citrate, 7 mM citric acid, pH 4.6, 140 mM dextrose and 70 mM theophylline)] and platelets isolated and washed using a modified method of Baezinger and Majerus (1974). Briefly, platelet-rich plasma (PRP) was obtained by centrifugation of whole blood at 200×g for 30 minutes. Platelets were then pelleted by centrifugation of the PRP at 2,000×g for 10 minutes. The platelet pellet was resuspended in platelet washing buffer (PWB) [4.3 mM K2HPO4, 4.3 mM Na2HPO4, 24.3 mM NaH2PO4, pH 6.5, 113 mM NaCl, 5.5 mM glucose, 0.5% bovine serum albumin (BSA) and 10 mM theophylline]. […] Lipid peaks co-eluting with commercially available PtdIns(3,4)P2 and PtdIns(4,5)P2 standards were integrated and normalized to total lipid applied and expressed as a fraction of control samples.

p38α = p38α (Homo sapiens, UniProt Q16539); assay: Ser/Thr kinase assay by MDS Pharma Services (Panlabs); type: biochemical
Ab1 = Ab1 (Homo sapiens, UniProt P00519); assay: Tyrosine kinase assay by MDS Pharma Services (Panlabs); type: biochemical

T2 sequence (P42336 whole entry, canonical isoform): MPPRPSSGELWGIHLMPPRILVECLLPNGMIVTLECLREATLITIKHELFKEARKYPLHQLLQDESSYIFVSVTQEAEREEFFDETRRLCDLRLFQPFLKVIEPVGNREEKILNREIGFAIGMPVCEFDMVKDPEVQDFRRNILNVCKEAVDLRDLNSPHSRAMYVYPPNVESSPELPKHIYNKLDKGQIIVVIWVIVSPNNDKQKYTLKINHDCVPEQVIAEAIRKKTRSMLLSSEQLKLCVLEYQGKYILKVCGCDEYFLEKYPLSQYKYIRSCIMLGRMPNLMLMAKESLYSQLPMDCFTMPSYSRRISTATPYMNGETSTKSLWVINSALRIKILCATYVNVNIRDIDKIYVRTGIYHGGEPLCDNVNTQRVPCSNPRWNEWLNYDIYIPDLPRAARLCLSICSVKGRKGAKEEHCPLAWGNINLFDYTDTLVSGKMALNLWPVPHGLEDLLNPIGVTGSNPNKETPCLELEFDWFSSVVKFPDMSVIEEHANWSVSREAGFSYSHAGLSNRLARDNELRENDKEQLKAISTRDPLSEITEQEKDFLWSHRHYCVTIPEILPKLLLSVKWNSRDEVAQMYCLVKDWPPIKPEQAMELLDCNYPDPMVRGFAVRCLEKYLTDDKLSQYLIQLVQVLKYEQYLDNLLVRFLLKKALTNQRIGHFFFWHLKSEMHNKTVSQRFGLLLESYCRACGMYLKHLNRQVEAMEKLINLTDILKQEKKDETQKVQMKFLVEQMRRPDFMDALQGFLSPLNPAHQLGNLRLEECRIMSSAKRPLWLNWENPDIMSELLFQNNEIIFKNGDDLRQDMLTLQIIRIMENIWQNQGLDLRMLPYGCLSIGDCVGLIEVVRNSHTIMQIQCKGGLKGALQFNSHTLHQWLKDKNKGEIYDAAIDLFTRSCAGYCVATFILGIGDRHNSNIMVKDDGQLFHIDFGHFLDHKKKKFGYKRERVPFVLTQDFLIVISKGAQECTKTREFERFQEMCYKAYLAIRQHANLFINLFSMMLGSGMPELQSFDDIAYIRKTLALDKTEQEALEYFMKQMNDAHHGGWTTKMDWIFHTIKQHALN
T2 sequence (P27986 whole entry partner, canonical isoform): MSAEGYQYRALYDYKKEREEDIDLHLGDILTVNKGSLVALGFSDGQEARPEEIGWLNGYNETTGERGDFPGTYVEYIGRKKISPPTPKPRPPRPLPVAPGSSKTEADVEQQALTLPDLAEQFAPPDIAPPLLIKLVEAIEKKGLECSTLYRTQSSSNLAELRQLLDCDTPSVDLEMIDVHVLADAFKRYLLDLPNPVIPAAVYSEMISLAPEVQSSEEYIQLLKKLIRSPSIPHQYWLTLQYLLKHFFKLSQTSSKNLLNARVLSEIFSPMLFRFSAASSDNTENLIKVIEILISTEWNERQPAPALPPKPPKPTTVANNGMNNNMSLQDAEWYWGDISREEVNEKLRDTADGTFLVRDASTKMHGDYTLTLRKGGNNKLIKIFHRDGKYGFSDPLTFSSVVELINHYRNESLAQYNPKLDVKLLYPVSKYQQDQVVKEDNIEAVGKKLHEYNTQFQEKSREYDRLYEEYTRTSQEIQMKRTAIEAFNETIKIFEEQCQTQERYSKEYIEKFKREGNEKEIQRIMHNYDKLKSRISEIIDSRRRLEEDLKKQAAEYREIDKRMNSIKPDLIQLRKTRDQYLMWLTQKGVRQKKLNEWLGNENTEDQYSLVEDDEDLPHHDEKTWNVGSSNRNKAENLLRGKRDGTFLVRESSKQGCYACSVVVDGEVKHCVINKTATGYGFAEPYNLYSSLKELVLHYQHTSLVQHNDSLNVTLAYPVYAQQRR
Sequence of EGF Receptor (P00533 25-1210): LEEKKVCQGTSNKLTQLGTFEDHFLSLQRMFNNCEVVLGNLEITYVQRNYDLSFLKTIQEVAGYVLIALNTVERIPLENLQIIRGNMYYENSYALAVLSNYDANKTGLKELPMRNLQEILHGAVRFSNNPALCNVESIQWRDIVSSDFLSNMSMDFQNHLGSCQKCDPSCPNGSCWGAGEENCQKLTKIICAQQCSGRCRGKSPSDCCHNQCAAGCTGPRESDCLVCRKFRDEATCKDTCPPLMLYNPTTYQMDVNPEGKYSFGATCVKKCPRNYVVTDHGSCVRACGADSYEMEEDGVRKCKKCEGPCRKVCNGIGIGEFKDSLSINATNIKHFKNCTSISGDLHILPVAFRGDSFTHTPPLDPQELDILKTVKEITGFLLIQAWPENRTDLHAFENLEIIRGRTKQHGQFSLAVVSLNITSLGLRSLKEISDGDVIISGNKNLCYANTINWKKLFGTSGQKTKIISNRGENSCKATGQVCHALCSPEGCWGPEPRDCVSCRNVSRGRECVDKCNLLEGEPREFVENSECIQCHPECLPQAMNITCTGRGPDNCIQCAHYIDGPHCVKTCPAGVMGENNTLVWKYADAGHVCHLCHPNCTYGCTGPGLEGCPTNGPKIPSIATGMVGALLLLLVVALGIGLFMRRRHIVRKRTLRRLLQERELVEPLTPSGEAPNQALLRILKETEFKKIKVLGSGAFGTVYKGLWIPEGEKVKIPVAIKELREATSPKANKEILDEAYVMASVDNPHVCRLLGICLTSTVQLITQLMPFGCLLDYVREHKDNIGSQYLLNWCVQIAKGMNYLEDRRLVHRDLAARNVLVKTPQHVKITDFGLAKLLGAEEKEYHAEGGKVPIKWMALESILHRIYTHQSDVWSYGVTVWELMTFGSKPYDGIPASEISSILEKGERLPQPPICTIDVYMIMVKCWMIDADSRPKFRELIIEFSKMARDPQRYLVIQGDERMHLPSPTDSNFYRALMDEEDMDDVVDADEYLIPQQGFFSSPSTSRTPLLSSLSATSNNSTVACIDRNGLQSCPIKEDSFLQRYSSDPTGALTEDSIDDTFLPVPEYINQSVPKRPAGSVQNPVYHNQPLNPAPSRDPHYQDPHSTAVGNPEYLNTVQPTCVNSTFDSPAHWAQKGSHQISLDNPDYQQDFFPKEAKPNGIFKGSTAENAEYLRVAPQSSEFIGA
T1 sequence (O00329 whole entry): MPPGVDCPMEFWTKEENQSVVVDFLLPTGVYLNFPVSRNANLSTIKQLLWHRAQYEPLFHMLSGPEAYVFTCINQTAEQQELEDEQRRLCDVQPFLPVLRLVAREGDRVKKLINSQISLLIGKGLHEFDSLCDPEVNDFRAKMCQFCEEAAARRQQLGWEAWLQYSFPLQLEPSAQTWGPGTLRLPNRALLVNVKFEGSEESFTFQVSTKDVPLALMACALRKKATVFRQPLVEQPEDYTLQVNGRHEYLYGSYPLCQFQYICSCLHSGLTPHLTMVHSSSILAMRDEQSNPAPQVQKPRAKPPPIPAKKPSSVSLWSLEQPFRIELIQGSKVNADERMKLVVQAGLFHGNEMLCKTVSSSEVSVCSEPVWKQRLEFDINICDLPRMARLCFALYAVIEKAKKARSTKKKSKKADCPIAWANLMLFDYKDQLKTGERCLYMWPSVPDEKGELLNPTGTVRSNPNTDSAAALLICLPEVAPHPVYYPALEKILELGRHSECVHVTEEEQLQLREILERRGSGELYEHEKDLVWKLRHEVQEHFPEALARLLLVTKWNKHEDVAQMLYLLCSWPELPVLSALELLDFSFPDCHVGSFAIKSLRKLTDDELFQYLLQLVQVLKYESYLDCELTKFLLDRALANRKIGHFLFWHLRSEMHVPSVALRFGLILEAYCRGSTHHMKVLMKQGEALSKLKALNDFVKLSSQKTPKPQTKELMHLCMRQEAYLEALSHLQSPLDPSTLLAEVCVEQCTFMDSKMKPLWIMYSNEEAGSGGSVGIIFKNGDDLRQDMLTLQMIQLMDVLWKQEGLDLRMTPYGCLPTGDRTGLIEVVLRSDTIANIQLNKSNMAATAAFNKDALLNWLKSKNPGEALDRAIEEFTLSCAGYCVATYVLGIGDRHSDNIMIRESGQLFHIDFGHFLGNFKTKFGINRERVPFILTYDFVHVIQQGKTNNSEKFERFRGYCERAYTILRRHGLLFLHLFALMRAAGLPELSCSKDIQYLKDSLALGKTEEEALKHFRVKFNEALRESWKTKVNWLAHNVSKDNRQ
T1 sequence (P27986 whole entry partner): as the sequence (P27986 whole entry partner, canonical isoform) above
Sequence of p70^S6 (P23443 24-525 limits assumed): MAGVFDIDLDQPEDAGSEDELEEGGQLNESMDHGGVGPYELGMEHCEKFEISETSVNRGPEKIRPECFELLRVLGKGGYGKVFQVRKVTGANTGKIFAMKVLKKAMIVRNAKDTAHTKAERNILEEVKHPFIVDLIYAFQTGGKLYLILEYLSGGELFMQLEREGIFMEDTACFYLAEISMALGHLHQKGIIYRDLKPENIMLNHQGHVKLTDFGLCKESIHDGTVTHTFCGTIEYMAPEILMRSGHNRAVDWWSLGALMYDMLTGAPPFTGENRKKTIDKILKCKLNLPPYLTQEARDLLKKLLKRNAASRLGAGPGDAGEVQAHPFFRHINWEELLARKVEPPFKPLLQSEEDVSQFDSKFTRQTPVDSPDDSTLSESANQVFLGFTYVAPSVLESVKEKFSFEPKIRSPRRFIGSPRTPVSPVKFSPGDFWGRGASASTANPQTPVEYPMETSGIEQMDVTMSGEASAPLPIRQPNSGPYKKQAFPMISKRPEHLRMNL
Sequence of p38α (Q16539 whole entry): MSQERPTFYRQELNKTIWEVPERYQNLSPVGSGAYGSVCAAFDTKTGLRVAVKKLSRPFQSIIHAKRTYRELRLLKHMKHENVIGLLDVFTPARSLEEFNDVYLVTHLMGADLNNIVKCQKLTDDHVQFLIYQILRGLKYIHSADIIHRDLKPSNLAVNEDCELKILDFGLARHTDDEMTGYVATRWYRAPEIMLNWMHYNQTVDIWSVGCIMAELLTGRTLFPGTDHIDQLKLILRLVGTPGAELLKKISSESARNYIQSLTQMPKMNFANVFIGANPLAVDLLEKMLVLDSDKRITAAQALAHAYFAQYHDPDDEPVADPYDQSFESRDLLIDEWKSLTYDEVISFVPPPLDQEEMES

In the case of `Cc1cc(C(C)Nc2ccccc2)c2nc(N3CCOCC3)cc(=O)n2c1` (racemic) [TGX-221, (±)-7-methyl-2-morpholin-4-yl-9-(1-phenylaminoethyl)-pyrido[1,2-a]pyrimidin-4-one], the “baseline arterial blood pressure, heart rate or carotid artery blood flow” value ([1]; both the Folts and electrolytic studies) was “no effect”, the occlusive thrombus formation ([1]; rats, 2 mg/kg in PG 5 minutes before injury, in words, 90% occlusion rate in vehicle-treated rats) was “completely prevented” and the “carotid blood flow volume over the 60 min post-injury period” value ([1]; rats, 2 mg/kg, in words) was “preserving; also recorded: preserved”. For the same molecule, the “animals in which occlusive thrombus formation was immediately abolished” value ([2]; 2 mg/kg i.v. bolus) was 100%, the occlusive thrombus formation ([2]; 2 mg/kg, in words) was “completely prevented” and the “γ-independent GPIb calcium signalling” value ([3]; 0.5 μM) was “did not inhibit”. The “platelet responses to accelerated shear” value ([3]; vWf matrix, shear rate gradient up to 10,000 s^−1 over 1 s) was “Eliminates Platelet Responses to Accelerated Shear”, the IC50 (p110δ-PI3K) was 0.1 µM and the pIC50 (p110α-PI3K; Table I, read-out: inhibitory concentration, alpha) was under 5.30. The IC50 (p110α-PI3K; read-out: IC50 (μM), p110α-PI3K) was 5 µM, the IC50 (EGF Receptor) was over 10 µM and the IC50 (Fyn) was over 10 µM. The IC50 (p70^S6) was over 10 µM, the “cellular levels of conventional phosphoinositides PtdIns, PtdIns(4)P and PtdIns(4,5)P2” value ([4]; in words) was “without altering” and the “PI 3-kinase lipid generation” value ([4]; shear 5000 s^−1, in words) was “selectively inhibited PI 3-kinase lipid generation”. For the same molecule, the IC50 (p38α) was over 10 µM and the IC50 (Ab1) was over 10 µM.
